In PubChem BioAssay (NCI):
“And” between values parts separate entries of the source, which are not always exact repeats. Equal entries are not always repeated.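 1) Cells in 96-well plates. 2) Compound, 48 h, 5 concentrations. 3) Linear interpolation between surrounding doses. 4) Unreached endpoint = highest concentration. GI50 marks 50% less growth. At the TGI there is no net growth.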

Key:
Experiment in all cases: inhibition of tumour cell growth, NCI panel, 48 h
SK-MEL-2 melanoma = tested on: SK-MEL-2 melanoma
SK-OV-3 ovarian = tested on: SK-OV-3 ovarian
IGROV1 ovarian = tested on: IGROV1 ovarian
OVCAR-4 ovarian = tested on: OVCAR-4 ovarian
UACC-62 melanoma = tested on: UACC-62 melanoma
UO-31 renal = tested on: UO-31 renal
MALME-3M melanoma = tested on: MALME-3M melanoma
RPMI-8226 leukemia = tested on: RPMI-8226 leukemia
PC-3 prostate = tested on: PC-3 prostate
SNB-19 CNS = tested on: SNB-19 CNS

| Compound | TGI (SK-MEL-2 melanoma) | TGI (SK-OV-3 ovarian) | TGI (IGROV1 ovarian) | TGI (OVCAR-4 ovarian) [µM] | TGI (UACC-62 melanoma) | TGI (UO-31 renal) | TGI (MALME-3M melanoma) | TGI (RPMI-8226 leukemia) | GI50 (SK-MEL-2 melanoma) | GI50 (SK-OV-3 ovarian) [µM] | GI50 (IGROV1 ovarian) [µM] | GI50 (PC-3 prostate) | TGI (PC-3 prostate) | GI50 (OVCAR-4 ovarian) | GI50 (UACC-62 melanoma) | GI50 (SNB-19 CNS) [µM] | TGI (SNB-19 CNS) | GI50 (UO-31 renal) | GI50 (RPMI-8226 leukemia) [µM] | GI50 (MALME-3M melanoma) |
| --- | --- | --- | --- | --- | --- | --- | --- | --- | --- | --- | --- | --- | --- | --- | --- | --- | --- | --- | --- | --- |
| CCOC(=O)CN(Cn1cncn1)Cn1cncn1 | > 100 µM | > 100 µM | > 100 µM | > 100 | > 100 µM | > 100 µM | > 100 µM | > 100 µM | – | – | – | – | – | – | – | – | – | – | – | – |
| COc1ccc(C(=O)c2cc3c(N)c(C(=O)Nc4ccccc4)sc3nc2C)cc1 | > 100 µM | > 100 µM | > 100 µM | > 100 | > 100 µM | > 100 µM | – | > 100 µM | 4.22 µM | 0.763 | 2.51 | 2.77 µM | > 100 µM | 16.1 µM | 0.952 µM | 2.02 | > 100 µM | 2.64 µM | 1.78 | – |
| O=C(O)c1cc(=O)c2c([nH]c3ccccc32)s1 | > 100 µM | > 100 µM | > 100 µM | > 100 | > 100 µM | > 100 µM | > 100 µM | > 100 µM | – | – | – | – | – | – | – | – | > 100 µM | – | – | – |
| CC1CN(S(=O)(=O)c2oc(-c3ccc(Cl)cc3)nc2C#N)CC(C)O1 (configuration not stated) | 14.6 µM | 70.6 µM | 3.69 µM | 4.65 | 11 µM | 2.91 µM | 2.96 µM | – | 4.1 µM | 25.1 | 1.87 | 1.97 µM | 4.04 µM | 2.02 µM | 3.08 µM | 12.5 | 25 µM | 1.56 µM | – | 1.57 µM |
| COc1ccc(-c2cc(C(=O)Nc3cc(C(F)(F)F)cc(C(F)(F)F)c3)c3ccccc3n2)cc1 | 30.6 µM | – | 44.9 µM | > 100 | > 100 µM | > 100 µM | 46.4 µM | > 100 µM | – | – | – | – | – | – | – | – | – | – | – | – |
| COC(=O)C1=C(CS(=O)c2ccc([N+](=O)[O-])cc2[N+](=O)[O-])C2C=CC1C2 (configuration not stated) | > 100 µM | > 100 µM | > 100 µM | 67.1 | 42.2 µM | 45.9 µM | 79.5 µM | > 100 µM | – | – | – | – | – | – | – | – | > 100 µM | – | – | – |
| N/C(=N\NS(=O)(=O)c1ccccc1)Oc1ccc(Br)cc1Br | > 100 µM | > 100 µM | > 100 µM | > 100 | > 100 µM | > 100 µM | > 100 µM | > 100 µM | – | – | – | – | – | – | – | – | > 100 µM | – | – | – |
| NCCCCC1NC(=O)C(CC(=O)O)NC(=O)CNC(=O)C(CCCN=C(N)N)NC(=O)C(N)CSSCC(C(=O)O)NC(=O)C(CC(=O)O)NC(=O)C2CCCN2C(=O)CNC1=O (configuration not stated) | > 100 µM | > 100 µM | > 100 µM | > 100 | > 100 µM | > 100 µM | > 100 µM | – | > 100 µM | > 100 | > 100 | – | – | > 100 µM | > 100 µM | > 100 | > 100 µM | > 100 µM | – | > 100 µM |
| CC1(c2cc3c(cc2Br)OCO3)SCCCS1 | 88.3 µM | > 100 µM | > 100 µM | > 100 | > 100 µM | 85.1 µM | – | 91.6 µM | – | – | – | – | – | – | – | – | > 100 µM | – | – | – |
| CC(C)(O)/C=C/C(=O)[C@](C)(O)[C@H]1[C@H](O)C[C@@]2(C)[C@@H]3CC=C4[C@@H](C[C@H](O)C(=O)C4(C)C)[C@]3(C)C(=O)C[C@]12C | 0.0829 µM and 0.131 µM | 0.977 µM and 4.71 µM | 0.479 µM and 1.22 µM | – | 0.947 µM and 2.44 µM | 0.396 µM and 0.519 µM | 0.932 µM | 0.915 µM and 0.824 µM | 0.0294 µM | 0.566 | 0.211 | – | – | 0.161 µM and 0.891 µM | 0.0736 µM | 0.0476 | 0.349 µM and 0.951 µM | 0.206 µM | 0.0666 | – |
| Clc1cccc(N2CCN(CCCN3CCc4c([nH]c5ccccc45)C3c3cccnc3)CC2)c1 (configuration not stated) | 24.3 µM | 32.2 µM | > 100 µM | 25.1 | – | 18.5 µM | 8.97 µM and 21.6 µM | – | – | – | – | – | – | – | – | – | > 100 µM | – | – | 5.78 µM |
| Cc1c2c(cc3c1C(=O)C(=O)C1=C3OC[C@@H]1C)C(C)(C)CCC2 | 21.2 µM | 82.8 µM | 49.8 µM | 51.8 | 25.9 µM | 46.1 µM | 29 µM | – | – | – | – | – | – | – | – | – | 49.3 µM | – | – | – |
| Cc1nc2ccc(Br)cc2c(=O)n1-c1ccc(NC2OCC(O)C(O)C2O)cc1 (configuration not stated) | 66.3 µM and > 100 µM | > 100 µM | > 100 µM | > 100 | > 100 µM | > 100 µM | 65 µM and > 100 µM | – | 25.6 µM and > 100 µM | > 100 | – | 18.5 µM and > 100 µM | 86.9 µM and > 100 µM | – | 30.7 µM and > 100 µM | – | > 100 µM | 35.8 µM and > 100 µM | – | 23.2 µM and > 100 µM |
| CCOC(=O)c1c(C)n(Cc2ccc(Cl)cc2Cl)c2c1cc1oc(=O)c(=O)n3cnc2c13 | 56.5 µM | 38.3 µM | 34 µM | 27.6 | – | 31.8 µM | 25.5 µM | 21.8 µM | 22.5 µM | 23.5 | 17.8 | – | – | 11.9 µM | – | 17.4 | 32.1 µM | 16.1 µM | 6.32 | 10.4 µM |
| O=C1C(=O)N(c2ccc(Cl)cc2)C(=O)C(=O)C1c1nc2ccccc2s1 | > 100 µM | > 100 µM | > 100 µM | > 100 | > 100 µM | > 100 µM | > 100 µM | > 100 µM | – | – | – | – | – | – | – | – | > 100 µM | – | – | – |
| Cc1cc(Nc2nc(C(=O)Nc3ccccc3)nc3ccccc23)n[nH]1 | > 25 µM | > 25 µM | > 25 µM | > 25 | – | > 25 µM | > 25 µM | > 25 µM | 3.57 µM | 12.8 | 4.48 | – | – | 7.87 µM | – | > 25 | > 25 µM | 1.3 µM | 12.5 | 13.8 µM |
| CCC(C)Oc1nc2c(c(=O)n(C)c(=O)n2C)n1C (configuration not stated) | > 100 µM | > 100 µM | > 100 µM | > 100 | > 100 µM | > 100 µM | > 100 µM | – | > 100 µM | > 100 | > 100 | > 100 µM | > 100 µM | > 100 µM | > 100 µM | > 100 | > 100 µM | > 100 µM | – | > 100 µM |
| CCOc1ccc(/C(C=O)=C(\Cl)c2ccc(OC)cc2)cc1 | > 100 µM | > 100 µM | > 100 µM | > 100 | > 100 µM | > 100 µM | > 100 µM | > 100 µM | – | – | – | – | – | – | – | – | > 100 µM | – | – | – |
